In US4971974A, “Benzothiophenes as appetite suppressants” (Neurex Corporation, priority 1988, dated 1990):

Key:
[1] = U.S. Pat. Nos. 3,636,218; 3,518,278; Miller et al; cited from earlier work
[2] = Acute toxicity studies in mice; details: mouse, in vivo, ip, intraperitoneally
Description: In acute toxicity studies in mice, 1,2,3,4-tetrahydrobenzo[b]thieno[2,3-c]pyridine yields LD50 values in excess of 100 mg/kg when administered intraperitoneally and 100 mg/kg when administered by the oral route.

[3] = Alteration of macronutrient preference in rats, 75% or 25% carbohydrate test diets (Example 2); type: in vivo, rats (Sprague-Dawley); details: rat; for cumulative amount of 25% Carbohydrate diet consumed, 1 hr / cumulative amount of 25% Carbohydrate diet consumed, 2 hr / cumulative amount of 75% Carbohydrate diet consumed, 1 hr / cumulative amount of 75% Carbohydrate diet consumed, 2 hr: mean±SEM; for cumulative amount of 25% Carbohydrate diet consumed, 1 hr: saline 6.4 ± 0.5; for cumulative amount of 25% Carbohydrate diet consumed, 2 hr: saline 7.5 ± 1.7; for cumulative amount of 75% Carbohydrate diet consumed, 1 hr: saline 6.6 ± 0.5; for cumulative amount of 75% Carbohydrate diet consumed, 1 hr / cumulative amount of 75% Carbohydrate diet consumed, 2 hr: significant p < 0.01; for cumulative amount of 75% Carbohydrate diet consumed, 2 hr: saline 8.4 ± 1.6
Description: Sixty adult male rats (Sprague-Dawley, 225-300 g) were acclimated to laboratory conditions for a period of 10 days, during which they were allowed unrestricted access to food (Ralston-Purina #5001M) and water. All subjects were housed in individual cages, and the animal facility was maintained on a 12:12 hour light:dark cycle at 24°-27° C.
Animals were assigned to 6 groups (10 per group), then allowed to consume, ad libitum, one of two iso-nitrogenous test diets containing either 75% or 25% carbohydrate. After 3 days, food jars were removed. After an additional 24 hours, rats were administered either saline or 1,2,3,4-tetrahydrobenzo[b]thieno[2,3-c]pyridine (1.5 or 3.0 mg/Kg body weight), then given immediate access to the test diets. Data listed in Table 3 indicate the cumulative amount in grams (mean±SEM) of each diet consumed by the experimental and control groups during the subsequent 2-hour period.

[4] = Food intake in food-deprived rats after ip injection (Example 1); type: in vivo; details: for Post-Drug Food Intake, 0-1 hr / Post-Drug Food Intake, 1-2 hr / Post-Drug Food Intake, 2-6 hr / Post-Drug Food Intake, 6-8 hr / Post-Drug Food Intake, 8-24 hr / Cumulative Food Intake, 1 hr / Cumulative Food Intake, 2 hr / Cumulative Food Intake, 6 hr / Cumulative Food Intake, 8 hr / Cumulative Food Intake, 24 hr: mean ± SD; for Post-Drug Food Intake, 0-1 hr / Cumulative Food Intake, 1 hr: control 5.3 ± 1.3; for Post-Drug Food Intake, 1-2 hr: control 0.6 ± 0.7; for Post-Drug Food Intake, 2-6 hr: control 2.5 ± 1.6; for Post-Drug Food Intake, 6-8 hr: control 2.0 ± 1.0; for Post-Drug Food Intake, 8-24 hr: control 20.8 ± 1.7; for Cumulative Food Intake, 2 hr: control 5.9 ± 1.2; for Cumulative Food Intake, 6 hr: control 8.4 ± 0.9; for Cumulative Food Intake, 8 hr: control 10.4 ± 1.6; for Cumulative Food Intake, 24 hr: control 31.2 ± 2.1
Description: Forty-eight 70-to-80-day-old male rats (Bantin & Kingman, Fremont, Calif.) were housed singly in suspended cages, and were acclimated to the laboratory setting for a period of 12 days prior to testing. During this time, they were allowed ad libitum access to food (Ralston-Purina #5001M) and water. The room was kept at 24°-27° C. and maintained on a 12:12-hr light:dark schedule (0700-1900 h).
Animals matched by body weight and mean daily food intake were assigned to 4 groups (n=12/group). Food jars were removed at 0900 h. Twenty-four hours later, rats were injected with either sterile 0.9% saline or saline containing 1,2,3,4-tetrahydrobenzo[b]thieno[2,3-c]pyridine HCl (5, 10, or 25 mg/kg, ip). Pre-weighed food jars containing meal (Ralston-Purina #5001M) were presented immediately post-injection. These were weighed at intervals over the next 24 hours, and food consumption was calculated for each interval. Animals were provided with water in quantities sufficient for ad libitum consumption throughout the experiment.
To assess the duration of the drug-induced anorexia and rebound feeding behavior, food intake was measured at several time intervals after drug administration.

[5] = in vivo; cited from earlier work
[6] = rat, 5 mg/Kg ip, significant p < 0.02
[7] = rat, 10 mg/Kg ip, significant p < 0.02
[8] = rat, 25 mg/Kg ip, significant p < 0.05
[9] = rat, 25 mg/Kg ip, significant p < 0.02

Compound: c1ccc2c3c(sc2c1)CNCC3 [1,2,3,4-tetrahydrobenzo[b]thieno[2,3-c]pyridine]
- central nervous system depression [1]: CNS depressants and tranquilizing agents
- LD50 [2]: > 100 mg/kg
- cumulative amount of 25% Carbohydrate diet consumed, 1 hr ([3]; 1.5 mg/Kg): 5.6 ± 0.3 grams
- cumulative amount of 25% Carbohydrate diet consumed, 2 hr ([3]; 1.5 mg/Kg): 7.6 ± 1.0 grams
- cumulative amount of 75% Carbohydrate diet consumed, 1 hr ([3]; 1.5 mg/Kg): 4.4 ± 0.2 grams
- cumulative amount of 75% Carbohydrate diet consumed, 2 hr ([3]; 1.5 mg/Kg): 5.8 ± 0.8 grams
- cumulative amount of 25% Carbohydrate diet consumed, 1 hr ([3]; 3.0 mg/Kg): 5.4 ± 0.3 grams
- cumulative amount of 25% Carbohydrate diet consumed, 2 hr ([3]; 3.0 mg/Kg): 7.0 ± 1.1 grams
- cumulative amount of 75% Carbohydrate diet consumed, 1 hr ([3]; 3.0 mg/Kg): 4.5 ± 0.2 grams
- cumulative amount of 75% Carbohydrate diet consumed, 2 hr ([3]; 3.0 mg/Kg): 6.0 ± 1.3 grams
- consumption of low carbohydrate diet vs controls ([3]; 1.5 or 3.0 mg/Kg, 25% carbohydrate): consumed equivalent quantities of the low carbohydrate diet
- consumption of high carbohydrate diet vs controls ([3]; 1.5 or 3.0 mg/Kg, 75% carbohydrate): consumed significantly less of the high carbohydrate diet than did controls
- Post-Drug Food Intake, 0-1 hr ([4]; rat, 5 mg/Kg ip, significant p < 0.05): 1.3 ± 0.6 gm
- Post-Drug Food Intake, 1-2 hr ([4]; rat, 5 mg/Kg ip): 1.2 ± 0.6 gm
- Post-Drug Food Intake, 2-6 hr ([4]; rat, 5 mg/Kg ip): 4.9 ± 1.6 gm
- Post-Drug Food Intake, 6-8 hr ([4]; rat, 5 mg/Kg ip): 1.8 ± 1.3 gm
- Post-Drug Food Intake, 8-24 hr ([4]; rat, 5 mg/Kg ip): 18.2 ± 1.9 gm
- Cumulative Food Intake, 1 hr [4, 6]: 1.3 ± 0.6 gm
- Cumulative Food Intake, 2 hr [4, 6]: 2.5 ± 0.7 gm
- Cumulative Food Intake, 6 hr ([4]; rat, 5 mg/Kg ip): 7.4 ± 1.6 gm
- Cumulative Food Intake, 8 hr ([4]; rat, 5 mg/Kg ip): 9.2 ± 1.6 gm
- Cumulative Food Intake, 24 hr ([4]; rat, 5 mg/Kg ip): 27.4 ± 2.8 gm
- food consumption in rats ([4]; rat, 5 mg/kg intraperitoneally): significantly reduce food consumption in rats
- Post-Drug Food Intake, 0-1 hr ([4]; rat, 10 mg/Kg ip, significant p < 0.05): 0.9 ± 0.9 gm
- Post-Drug Food Intake, 1-2 hr ([4]; rat, 10 mg/Kg ip): 1.1 ± 0.8 gm
- Post-Drug Food Intake, 2-6 hr ([4]; rat, 10 mg/Kg ip): 4.3 ± 1.8 gm
- Post-Drug Food Intake, 6-8 hr ([4]; rat, 10 mg/Kg ip): 1.4 ± 0.6 gm
- Post-Drug Food Intake, 8-24 hr ([4]; rat, 10 mg/Kg ip): 19.2 ± 2.8 gm
- Cumulative Food Intake, 1 hr [4, 7]: 0.9 ± 0.9 gm
- Cumulative Food Intake, 2 hr [4, 7]: 2.0 ± 1.1 gm
- Cumulative Food Intake, 6 hr ([4]; rat, 10 mg/Kg ip): 6.3 ± 2.3 gm
- Cumulative Food Intake, 8 hr ([4]; rat, 10 mg/Kg ip): 7.7 ± 2.5 gm
- Cumulative Food Intake, 24 hr [4, 7]: 26.8 ± 2.8 gm
- Post-Drug Food Intake, 0-1 hr [4, 8]: 0.1 ± 0.2 gm
- Post-Drug Food Intake, 1-2 hr ([4]; rat, 25 mg/Kg ip): 0.1 ± 0.2 gm
- Post-Drug Food Intake, 2-6 hr ([4]; rat, 25 mg/Kg ip): 2.1 ± 2.3 gm
- Post-Drug Food Intake, 6-8 hr ([4]; rat, 25 mg/Kg ip): 0.9 ± 0.7 gm
- Post-Drug Food Intake, 8-24 hr [4, 8]: 17.1 ± 2.1 gm
- Cumulative Food Intake, 1 hr [4, 9]: 0.1 ± 0.2 gm
- Cumulative Food Intake, 2 hr [4, 9]: 0.2 ± 0.3 gm
- Cumulative Food Intake, 6 hr [4, 9]: 2.2 ± 2.4 gm
- Cumulative Food Intake, 8 hr [4, 9]: 3.0 ± 2.6 gm
- Cumulative Food Intake, 24 hr [4, 9]: 20.1 ± 2.6 gm
- cumulative food intake at 24 hours vs controls ([4]; rat, 25 mg/kg ip, 24 hours): substantially lower cumulative food intake at 24 hours post-injection than controls
- food consumption, dose relation ([4]; rat, 5, 10, 25 mg/kg ip): dose-related decrement in food consumption
- rebound feeding in the 1-6 hr interval ([4]; rat, 5 and 10 mg/kg ip, not statistically significant): varying degrees of rebound feeding
- food intake at 2 hours post-injection vs control ([4]; rat, all experimental groups (5, 10, 25 mg/kg ip), 2 hours): significantly lower than control values
- food intake in the first hour after drug administration ([4]; rat, ip, first hour): highly significant fall in food intake

Compound: O=C(NCCN1CCOCC1)c1sc2ccccc2c1Br [3-bromo-2-(N-morpholinoethyl)benzo[b]thiophene carboximide]
- anticonvulsant properties [5]: anticonvulsant properties
- antidepressant activity [5]: antidepressant activity
